24 compounds from patent publication US10703764B2, “Benzopiperazine compositions as BET bromodomain inhibitors” (FORMA Therapeutics, Inc., priority 2013, dated 2020) can be followed below.

The target of assay [1] is T1, BRD4 BD1 (Homo sapiens, UniProt O60885).
T1 construct: made in house
Put plainly: AlphaScreen binding assay, BRD4 Bromodomain 1. In a few lines: (§1)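 An AlphaScreen competition format was used with His-BRD4 BD1 or BD2 and biotin-H4 K5/8/12/16-acetyl peptide, each at matched final levels of 50 nM (BD1) or 100 nM (BD2). Incubation in HEPES/NaCl buffer with 0.1% BSA and 0.01% Triton X-100 ran ≥1 h before IC50 determination.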
A general note: Alpha assays give light when donor and acceptor beads are brought close together.

In assay [2] the target is T2, BRD4 BD2 (Homo sapiens, UniProt O60885).
T2 construct: made in house
Put plainly: AlphaScreen binding assay, BRD4 Bromodomain 2. In a few lines:
as §1

The test system of assay [3] is MV4-11 cells. Put plainly: Oncology cell growth assay (3-day proliferation, CellTiter-Glo). It is filed as cell-based. The settings on record: Homo sapiens, MV4-11, 72 h, AML cell line MV4-11, 72 hours, compounds grouped by IC50 range, read-out: MV4-11 IC50 (inhibition of proliferation, gIC50). How it is done:
The impact of Example compounds on cancer cell proliferation was determined using the acute myelocytic leukemia (AML) cell line MV4-11 (ATCC) in a 3-day proliferation assay. MV4-11 cells were maintained in RPMI 1640 media supplemented with 10% FBS at 37° C. and an atmosphere of 5% CO2. For compound testing, compound dilutions series were prepared in DMSO via a 3-fold serial dilution from 2 mM to 0.001 mM in 384-well white flat bottom plates. The final compound concentrations in the wells were 10, 3.3, 1.1, 0.37, 0.12, 0.041, 0.013 and 0.0045 μM. MV4-11 cells were plated at a density of 3000 cells/well in final volume of 50 μl culture media and incubated for 72 hours. […] Luminescent signal from the CellTiter-Glo assay was read on an EnVision multilabel plate reader (PerkinElmer). Values for the concentration that inhibited cell growth by 50% (gIC50) between the DMSO control and background control (no cells) were determined using IDBS Activity Base software with a four parameter logistic curve fit by the equation y=A+((B−A)/(1+((C/x)^D))), wherein A denotes the bottom plateau of the curve, B denotes the top plateau of the curve, C denotes the x value at the middle of the curve, D denotes the slope factor, x denotes the original known x values, and y denotes the original known y values. Data was fitted using the Levenburg Marquardt algorithm.

`CC(=O)N1c2ccc(-c3cccc(S(=O)(=O)C4CC4)c3)cc2N(C(=O)OC(C)C)C[C@@H]1C` [Example I-1089]: the IC50 in assay [1] fell in the range of 100 to 1000 nM; in assay [2] it was 50 to 500 nM; in assay [3], 100 to 500 nM.
With `CC(C)OC(=O)N1C[C@H](C)N(C(=O)C2CC2)c2ccc(-c3ccc(N4CCS(=O)(=O)CC4)cc3)cc21` [Example I-468], the IC50 in assay [1] lay within 100 to 1000 nM; in assay [2], 50 to 500 nM; in assay [3], 100 to 500 nM.
In the case of `CC(=O)N1c2ccc(-c3cnn(C4CS(=O)(=O)C4)c3)cc2N(C(=O)OC2CC(F)(F)C2)C[C@@H]1C` [Example I-1, 3,3-difluorocyclobutyl (3S)-4-acetyl-7-[1-(1,1-dioxo-1λ^6-thietan-3-yl)-1H-pyrazol-4-yl]-3-methyl-1,2,3,4-tetrahydroquinoxaline-1-carboxylate], the IC50 was in the range of 100 to 1000 nM in assay [1] and 100 to 500 nM in assay [3].
The matching figures for `CC(=O)N1c2ccc(-c3cnn(C4CN[C@H]4C)c3)cc2N(C(=O)OC2CC(F)(F)C2)C[C@@H]1C` (mixture of isomers) [Example I-168, 3,3-difluorocyclobutyl (3S)-4-acetyl-3-methyl-7-{1-[(2S)-2-methylazetidin-3-yl]-1H-pyrazol-4-yl}-1,2,3,4-tetrahydroquinoxaline-1-carboxylate]: 100 to 1000 nM and above 500 nM.
Taken in the same sequence, the figures for `CC(=O)N1c2ccc(-c3cnn(C4CCNC(=O)C4)c3)cc2N(C(=O)OC2CCC2)C[C@@H]1C` (stereo partly drawn) [Example I-175, cyclobutyl (3S)-4-acetyl-3-methyl-7-[1-(2-oxopiperidin-4-yl)-1H-pyrazol-4-yl]-1,2,3,4-tetrahydroquinoxaline-1-carboxylate] were below 100 nM and below 100 nM.
The matching figures for `CC(=O)N1c2ccc(-c3cnn(C4CN[C@H]4C)c3)cc2N(C(=O)OC(C)C)C[C@@H]1C` (stereo partly drawn) [Example I-159, propan-2-yl (3S)-4-acetyl-3-methyl-7-{1-[(2S)-2-methylazetidin-3-yl]-1H-pyrazol-4-yl}-1,2,3,4-tetrahydroquinoxaline-1-carboxylate]: 100 to 1000 nM and below 100 nM.
Turning to `CC(=O)N1c2ccc(-c3cnn(C4CN[C@H]4C)c3)cc2N(C(=O)OC2CCC2)C[C@@H]1C` (stereo partly drawn) [Example I-178, cyclobutyl (3S)-4-acetyl-3-methyl-7-{1-[(2S)-2-methylazetidin-3-yl]-1H-pyrazol-4-yl}-1,2,3,4-tetrahydroquinoxaline-1-carboxylate], the figures for the IC50 in assay [1] and in assay [3] were 100 to 1000 nM and 100 to 500 nM, respectively.
Taken in the same sequence, the figures for `CC(=O)N1c2ccc(-c3cnn(C4CCNC(=O)C4)c3)cc2N(C(=O)OC2CCOCC2)C[C@@H]1C` (stereo partly drawn) [Example I-163, oxan-4-yl (3S)-4-acetyl-3-methyl-7-[1-(2-oxopiperidin-4-yl)-1H-pyrazol-4-yl]-1,2,3,4-tetrahydroquinoxaline-1-carboxylate] were 100 to 1000 nM and 100 to 500 nM.
Turning to `CC(=O)N1c2ccc(-c3cnn([C@H]4CCCS(=O)(=O)C4)c3)cc2N(C(=O)OCC2CC2)C[C@@H]1C` [Example I-172, cyclopropylmethyl (3S)-4-acetyl-7-{1-[(3S)-1,1-dioxo-1λ^6-thian-3-yl]-1H-pyrazol-4-yl}-3-methyl-1,2,3,4-tetrahydroquinoxaline-1-carboxylate], the IC50 in assay [1] was 100 to 1000 nM; in assay [3] it was above 500 nM.
Taken in the same sequence, the figures for `CC(=O)N1c2ccc(-c3cnn(C4CCS(=O)(=O)CC4)c3)cc2N(C(=O)OC(C)C)C[C@@H]1C` [Example I-156, propan-2-yl (3S)-4-acetyl-7-[1-(1,1-dioxo-1λ^6-thian-4-yl)-1H-pyrazol-4-yl]-3-methyl-1,2,3,4-tetrahydroquinoxaline-1-carboxylate] were 100 to 1000 nM and above 500 nM.
As for `CC(=O)N1c2ccc(-c3cnn(C4CCNC(=O)C4)c3)cc2N(C(=O)OC2CCC2)C[C@@H]1C` (single isomer, unassigned) [Example I-176], the IC50 lay within 100 to 1000 nM in assay [1] and 100 to 500 nM in assay [3].
The matching figures for `CC(=O)N1c2ccc(-c3cnn(C4CCNC(=O)C4)c3)cc2N(C(=O)OC2CC(F)(F)C2)C[C@@H]1C` (stereo partly drawn) [Example I-164, 3,3-difluorocyclobutyl (3S)-4-acetyl-3-methyl-7-[1-(2-oxopiperidin-4-yl)-1H-pyrazol-4-yl]-1,2,3,4-tetrahydroquinoxaline-1-carboxylate]: 100 to 1000 nM and above 500 nM.
For the compound `CC(=O)N1c2ccc(-c3cnn(C4CCS(=O)(=O)CC4)c3)cc2N(C(=O)OC2CCC2)C[C@@H]1C` [Example I-154, cyclobutyl (3S)-4-acetyl-7-[1-(1,1-dioxo-1λ^6-thian-4-yl)-1H-pyrazol-4-yl]-3-methyl-1,2,3,4-tetrahydroquinoxaline-1-carboxylate], the IC50 in assay [1] and in assay [3] was below 100 nM throughout.
For `CC(=O)N1c2ccc(-c3cnn(C4CCNC(=O)C4)c3)cc2N(C(=O)OC(C)C)C[C@@H]1C` (stereo partly drawn) [Example I-166, propan-2-yl (3S)-4-acetyl-3-methyl-7-[1-(2-oxopiperidin-4-yl)-1H-pyrazol-4-yl]-1,2,3,4-tetrahydroquinoxaline-1-carboxylate], the figures for the IC50 in assay [1] and in assay [3] were 100 to 1000 nM and 100 to 500 nM, respectively.
On to `CC(=O)N1c2ccc(-c3cnn(C4CN[C@@H]4C)c3)cc2N(C(=O)OC2CCC2)C[C@@H]1C` (stereo partly drawn) [Example I-170, cyclobutyl (3S)-4-acetyl-3-methyl-7-{1-[(2R)-2-methylazetidin-3-yl]-1H-pyrazol-4-yl}-1,2,3,4-tetrahydroquinoxaline-1-carboxylate], for which the IC50 lay in the range of 100 to 1000 nM in assay [1] and 100 to 500 nM in assay [3].
On to `CC(=O)N1c2ccc(-c3cnn([C@@H]4CCCS(=O)(=O)C4)c3)cc2N(C(=O)OC2CCC2)C[C@@H]1C` [Example I-173, cyclobutyl (3S)-4-acetyl-7-{1-[(3R)-1,1-dioxo-1λ^6-thian-3-yl]-1H-pyrazol-4-yl}-3-methyl-1,2,3,4-tetrahydroquinoxaline-1-carboxylate], for which the results for the IC50 in assay [1] and in assay [3] were 100 to 1000 nM and below 100 nM, respectively.
Taken in the same sequence, the figures for `CC(=O)N1c2ccc(-c3cnn([C@@H]4CCCS(=O)(=O)C4)c3)cc2N(C(=O)OCC2CC2)C[C@@H]1C` [Example I-171, cyclopropylmethyl (3S)-4-acetyl-7-{1-[(3R)-1,1-dioxo-1λ^6-thian-3-yl]-1H-pyrazol-4-yl}-3-methyl-1,2,3,4-tetrahydroquinoxaline-1-carboxylate] were 100 to 1000 nM and above 500 nM.
For `CC(C)OC(=O)N1C[C@H](C)N(C(=O)C2CC2)c2ccc(-c3ccc(C(=O)N(C)CC(=O)N(C)C)cc3)cc21` [Example I-560], the values for the IC50 in assay [1] and in assay [3] were 100 to 1000 nM and 100 to 500 nM, respectively.
Taken in the same sequence, the figures for `CC(=O)N1c2ccc(-c3ccc(C(=O)NCCN)cc3)cc2N(C(=O)OC(C)C)C[C@@H]1C` [Example I-480] were 100 to 1000 nM and 100 to 500 nM.
Turning to `CC(=O)N1c2ccc(-c3cnn(C4CCNC(=O)C4)c3)cc2N(C(=O)C2CC2)C[C@@H]1C` (stereo partly drawn) [Example I-167, 4-{4-[(2S)-1-acetyl-4-cyclopropanecarbonyl-2-methyl-1,2,3,4-tetrahydroquinoxalin-6-yl]-1H-pyrazol-1-yl}piperidin-2-one], the IC50 is 100 to 1000 nM in assay [1] and 100 to 500 nM in assay [3].
The matching figures for `CC(=O)N1c2ccc(-c3cnn(C4CN[C@H]4C)c3)cc2N(C(=O)C2CC2)C[C@@H]1C` (stereo partly drawn) [Example I-160, 1-[(2S)-4-cyclopropanecarbonyl-2-methyl-6-{1-[(2S)-2-methylazetidin-3-yl]-1H-pyrazol-4-yl}-1,2,3,4-tetrahydroquinoxalin-1-yl]ethan-1-one]: 100 to 1000 nM and below 100 nM.
The matching figures for `CC(=O)N1c2ccc(-c3cnn(C4CCNC(=O)C4)c3)cc2N(C(=O)OC2CCC(F)(F)CC2)C[C@@H]1C` (stereo partly drawn) [Example I-165, 4,4-difluorocyclohexyl (3S)-4-acetyl-3-methyl-7-[1-(2-oxopiperidin-4-yl)-1H-pyrazol-4-yl]-1,2,3,4-tetrahydroquinoxaline-1-carboxylate]: 100 to 1000 nM and 100 to 500 nM.
Taken in the same sequence, the figures for `CC(=O)N1c2ccc(-c3cnn([C@H]4CCCS(=O)(=O)C4)c3)cc2N(C(=O)OC2CCC2)C[C@@H]1C` [Example I-174, cyclobutyl (3S)-4-acetyl-7-{1-[(3S)-1,1-dioxo-1λ^6-thian-3-yl]-1H-pyrazol-4-yl}-3-methyl-1,2,3,4-tetrahydroquinoxaline-1-carboxylate] were below 100 nM and below 100 nM.
For `CC(=O)N1c2ccc(-c3cnn(C4CCS(=O)(=O)CC4)c3)cc2N(C(=O)OCC2CC2)C[C@@H]1C` [Example I-169, cyclopropylmethyl (3S)-4-acetyl-7-[1-(1,1-dioxo-1λ^6-thian-4-yl)-1H-pyrazol-4-yl]-3-methyl-1,2,3,4-tetrahydroquinoxaline-1-carboxylate], the IC50 in assay [1] is 100 to 1000 nM; in assay [3], above 500 nM.
